Source: patent publication US10716850B2, “Anti-inflammatory factor retentate, method of isolation, and use” (Wellin, Inc., priority 2014, dated 2020)

Tests used:
[1] = tested on: neutrophil migration into the pleural cavity; test: pleural neutrophil migration inhibition assay; format: in vivo, rat; details: for dose range of activity in the neutrophil assay: compared together with Peak 12
Procedure: Neutrophil Migration Inhibition Assay. MAIF anti-inflammatory activity was determined in a pleural neutrophil migration inhibition assay. Female, white laboratory rats weighing 120 to 150 g were injected intrapleurally with 1.0 ml of 1% kappa carrageenin in PBS to induce neutrophil migration into the pleural cavity. Immediately, the rats were injected intraperitoneally with 0.5 ml doses of […] samples in PBS. PBS was used as a control. After four hours, the rats were sacrificed, pleural exudates were collected, and the emigrated neutrophils were counted.

[2] = tested on: circulating neutrophils and lymphocytes; test: effect on circulating leucocytes; format: in vivo, rat; details: other anti-inflammatory/immunomodulatory agents
Procedure: Two experiments were done. In the first, the MAIF preparation was administered intravenously at a dose of 40 mg/rat to one group of 6 animals and a control group was injected with saline. Blood samples were obtained at baseline, 1, 4, and 24 hours after treatment.
A further dose-response study was carried out in which a group of rats were injected intravenously with saline, 5, 10 or 20 mg of the MAIF preparation. Blood from each rat had been taken 7 days previously to provide baseline values and was taken again 4 hours after the injection of MAIF. Included on the graph are the results obtained from the sample taken 4 hours after the administration of 40 mg the MAIF preparation (see FIG. 31).

[3] = tested on: carrageenan-induced footpad edema; test: quantitative rat carrageenan footpad assay with 125I-HSA; format: in vivo; details: given 30 minutes prior to carrageenan; aspirin orally 200 mg per kilogram, MAIF intraperitoneally, all dosages
Procedure: Peak I from the G-10 column, supplied by Stolle Milk Biologics International, was prepared according to the methods described in U.S. Pat. No. 4,956,349. Lactose, obtained from commercial sources, was used as placebo. Aspirin was used as a positive control. Aspirin was dissolved in water and given orally by gastric gavage at the ratio of 200 mg per kilogram, a dose known to be active in the assay. […] The footpad assay was modified by using isotopically labeled human serum albumin (^125I-HSA) that localizes in the carrageenan-induced lesion in direct proportion to the volume of the exudate. By determining the total radioactive count in the footpad and comparing this to the counts in a known volume of plasma from the injected animal, a direct measurement of edema in microliters of plasma equivalents is obtained. ^125I-HSA was injected intravenously at a dose of 1.0 microcurie per rat. Female Dark Agouti rats were used. […]
To conduct the carrageenan footpad assay, 0.1 ml of 2% carrageenan was injected subcutaneously into each hind foot pad of an anesthetized rat. […] Both hind feet were then removed and the levels of radioactivity in each foot and in the 200 μl plasma standard were measured in an automated gamma counter. From these measurements the volume of edema in each foot was calculated and expressed in microliters.

O=C(O)c1cc(=O)[nH]c(=O)[nH]1 [orotic acid]
inhibitory activity on the migration of rat neutrophils ([1]; in the doses tested): Neither the sialic acid nor the orotic acid exhibited any inhibitory activity

cyclosporin A
effect on circulating leucocytes in the rat [2]: causes an increase in the number of circulating neutrophils but lymphocyte numbers are either increased or not affected depending on the dose

O=P1(N(CCCl)CCCl)NCCCO1 (stereo not drawn) [cyclophosphamide]
effect on circulating leucocytes in the rat [2]: depletes both circulating lymphocytes and neutrophils

CC(=O)Oc1ccccc1C(=O)O [aspirin]
footpad edema [3]: inhibited | dose range of activity in the neutrophil assay [1]: active in the high microgram to milligram range

COc1ccc2c(c1)c(CC(=O)O)c(C)n2C(=O)c1ccc(Cl)cc1 [indomethacin]
dose range of activity in the neutrophil assay [1]: active in the high microgram to milligram range
